# Experimental data from patent US12667563B2, “Prophylactic or therapeutic agent for porphyria” (TANABE PHARMA CORPORATION, priority 2020, dated 2026).
# Key:
# Assay type in all cases: in vivo, human
# [1] = system: patients with erythropoietic protoporphyria or X-linked porphyria; test: Time to occurrence of phototoxicity-related symptom in randomized double-blind clinical trial; conditions: for Least squares mean of the length of time (in minutes) before the first occurrence of a symptom in a day: week 16
# Method: Compound A was administered to adult male and female patients with erythropoietic protoporphyria or X-linked porphyria for 16 weeks in a randomized double-blind clinical trial. As a primary endpoint for the clinical effect, the time to the first symptom due to exposure to light, including indirect sunlight as well as direct sunlight, during the period from 1 hour after sunrise to 1 hour before sunset was evaluated.
# The baseline median of the erythrocyte protoporphyrin IX level was determined by measuring the protoporphyrin IX level in the fraction of erythrocytes in blood.
# The median of the melanin density was determined h spectrophotometric measurement for the skin at the following six sites: the forehead, the left cheek, the inner side of the right upper arm, the inner side of the left forearm, the right side of the abdomen, and the left side of the hip.
# The test in Example 2 was conducted in the Northern Hemisphere.
# [2] = system: patients with erythropoietic protoporphyria or X-linked porphyria; test: Number of pain events recorded in electronic diary by patients during 16-week evaluation period of clinical trial; conditions: for reduction of pain events relative to the placebo administration group: 16 weeks; for Incidence rate of pain: N 24, 16-week evaluation period (placebo 7.5)
# Method: Compound A was administered to adult male and female patients with erythropoietic protoporphyria or X-linked porphyria for 16 weeks in a randomized double-blind clinical trial. As another endpoint for the clinical effect, the number of pain events during the evaluation period of 16 weeks was recorded in an electronic diary by the patients themselves.
# The incidence rates of pain during the evaluation period in the placebo administration group, the 100-mg compound A-administration group, and the 300-mg compound A-administration group were 7.5, 3.3, and 3.5, respectively.
# [3] = system: patients with erythropoietic protoporphyria or X-linked porphyria; test: Health-related QOL: PGIC (Patient Global Impression of Change) score in clinical trial; conditions: 7-point scale, 7 = remarkable improvement (placebo 2.9), P value <0.001
# Method: Compound A was administered to adult male and female patients with erythropoietic protoporphyria or X-linked porphyria for 16 weeks in a randomized double-blind clinical trial. As a secondary endpoint for the clinical effect, the PGIC (Patient Global Impression of Change) score, which is a health-related QOL, of each patient at week 16 was recorded by the patients themselves, More specifically, each patient was provided with a questionnaire for scoring the degree of improvement of the overall physical and mental health conditions on a 7-point scale.
# The PGIC scores at week 16 in the placebo-administration group, the 100-mg compound A-administration group, and the 300-mg compound A-administration group were 2.9, 6.4, and 6.6, respectively.
smiles,measurement,setting,value
"COC[C@H]1CN(C(=O)[C@]2(F)CN(C3CCCC3)C[C@H]2c2ccc(OC)cc2)C[C@@H]1c1ccc(C(F)(F)F)cc1N1CCC(C(=O)O)CC1.O=P(O)(O)O [Compound A, cocrystal containing 1-{2-[(3S,4R)-1-{[(3R,4R)-1-cyclopentyl-3-fluoro-4-(4-methoxyphenyl)pyrrolidin-3-yl]carbonyl}-4-(methoxymethyl)pyrrolidin-3-yl]-5-(trifluoromethyl)phenyl}piperidine-4-carboxylic acid and phosphoric acid]",Least squares mean of the length of time (in minutes) before the first occurrence of a symptom in a day,"[1]; 100 mg (N = 15) vs placebo (N = 15), subgroup with initial dosing in fall or winter, P value 0.029",52.8 min
same,Least squares mean of the length of time (in minutes) before the first occurrence of a symptom in a day,"[1]; 100 mg (N = 18) vs placebo (N = 20), subgroup with initial dosing in spring or summer, P value 0.073",54.4 min
same,Least squares mean of the length of time (in minutes) before the first occurrence of a symptom in a day,"[1]; 100 mg orally once daily (N = 33) vs placebo (N = 35), P value 0.008",53.8 min
same,least squares mean of the time (in minutes) to the first occurrence of the symptom in a day,"[1]; 100 mg, patient group with baseline median erythrocyte protoporphyrin IX level not less than 1980.50 mcg/dL, P value 0.020",69.3 min
same,least squares mean of the time (in minutes) to the first occurrence of the symptom in a day,"[1]; 100 mg, patient group with median melanin density less than 3.0915, P value 0.499",23.2 min
same,least squares mean of the time (in minutes) to the first occurrence of the symptom in a day,"[1]; 100 mg, patient group with median melanin density not less than 3.0915, P value <0.001",85.0 min
same,Least squares mean of the length of time (in minutes) before the first occurrence of a symptom in a day,"[1]; 300 mg (N = 16) vs placebo (N = 15), subgroup with initial dosing in fall or winter, P value <0.001",95.8 min
same,Least squares mean of the length of time (in minutes) before the first occurrence of a symptom in a day,"[1]; 300 mg (N = 18) vs placebo (N = 20), subgroup with initial dosing in spring or summer, P value 0.168",42.2 min
same,Least squares mean of the length of time (in minutes) before the first occurrence of a symptom in a day,"[1]; 300 mg orally once daily (N = 34) vs placebo (N = 35), P value 0.003",62.5 min
same,least squares mean of the time (in minutes) to the first occurrence of the symptom in a day,"[1]; 300 mg, patient group with baseline median erythrocyte protoporphyrin IX level not less than 1980.50 mcg/dL, P value 0.003",82.6 min
same,least squares mean of the time (in minutes) to the first occurrence of the symptom in a day,"[1]; 300 mg, patient group with median melanin density less than 3.0915, P value 0.051",63.7 min
same,least squares mean of the time (in minutes) to the first occurrence of the symptom in a day,"[1]; 300 mg, patient group with median melanin density not less than 3.0915, P value 0.002",80.3 min
same,time to the first occurrence of the symptom in a day,[1]; patient group with baseline median erythrocyte protoporphyrin IX level less than 1980.50 mcg/dL,tended to be prolonged
same,reduction of pain events relative to the placebo administration group,[2]; 100 mg orally once daily,60%
same,Incidence rate of pain,[2]; 100 mg orally once daily,3.3
same,"Incidence rate of pain, ratio to placebo","[2]; 100 mg orally once daily, P value 0.027",0.4
same,reduction of pain events relative to the placebo administration group,[2]; 300 mg orally once daily,50%
same,Incidence rate of pain,[2]; 300 mg orally once daily,3.5
same,"Incidence rate of pain, ratio to placebo","[2]; 300 mg orally once daily, P value 0.028",0.5
same,Least squares mean of the PGIC scores,"[3]; 100 mg orally once daily, N 25, week 16",6.4
same,Least squares mean of the PGIC scores,"[3]; 300 mg orally once daily, N 24, week 16",6.6
